Measured values from patent US8835354B2, “Composition for controlling plant diseases and method for controlling plant diseases” (Sumitomo Chemical Company, Limited, priority 2008, dated 2014).

Assays:
Type in all cases: in vivo
[1] = test system: Rhizoctonia solani, pathogen of cucumber damping-off; test: Cucumber damping-off seed treatment test (Test Example 1); conditions: seventh day
Excerpt: An acetone solution of compound (1b) and an acetone solution of tolclofos-methyl were mixed so as to prepare mixed liquids containing compound (1b) and tolclofos-methyl in predetermined concentration. These mixed liquids were used for smear treatment of cucumber (Sagamihanjiro) seeds using a rotary seed treatment machine (seed dresser, produced by Hans-Ulrich Hege GmbH) so as to obtain treated seeds. The treated seeds were left untouched overnight and then disseminated on the soil which filled a plastic pot and covered with the soil containing Rhizoctonia solani, pathogen of cucumber damping-off, which had been cultured on a bran medium. They were allowed to grow in a greenhouse while irrigated and the number of non-budding seeds was checked on the seventh day after the dissemination and the incidence of disease was calculated by Equation 3. The control value was calculated by Equation 1 based on the incidence of disease. The incidence of disease was also checked in the case in which the plants had not been treated with the agent in order to calculate the control value. […]
Generally, the control value expected for the case where the given two kinds of active ingredient compounds are mixed and used for the treatment, the so-called control value expectation is calculated from the following Colby's calculating equation. […]

[2] = test system: Pythium irregulare, pathogen of cucumber damping-off; test: Cucumber damping-off seed treatment test with mefenoxam (Test Example 5); conditions: seventh day
Description: (§1) Control value=100(A−B)/A “Equation 1”
(§2) A: Incidence of disease of plant in untreated area
(§3) B: Incidence of disease of plant in treated area
(§4) Generally, the control value expected for the case where the given two kinds of active ingredient compounds are mixed and used for the treatment, the so-called control value expectation is calculated from the following Colby's calculating equation. E=X+Y−(X×Y)/100 “Equation 2”
(§5) X: Control value (%) when active ingredient compound A is used for treatment in M g per hectare or in M g per 100 kg of seeds
(§6) Y: Control value (%) when active ingredient compound B is used for treatment in N g per hectare or in N g per 100 kg of seeds
(§7) E: Control value (%) expected for the case where active ingredient compound A in M g per hectare or in M g per 100 kg of seeds and active ingredient compound B in N g per hectare or in N g per 100 kg of seeds are mixed and used for treatment (hereinbelow referred to as “control value expectation”) “Synergetic effect”=(Actual control value)×100/(Control value expectation) Incidence of disease=(Number of no budding seeds)×100/(Number of total disseminated seeds) “Equation 3”
(§8) An acetone solution of compound (1b) and an acetone solution of mefenoxam were mixed so as to prepare mixed liquids containing compound (1b) and mefenoxam in predetermined concentration. These mixed liquids were adhered on the surface of cucumber (Sagamihanjiro) seeds so as to obtain treated seeds. […] They were allowed to grow in a greenhouse while irrigated and the number of non-budding seeds was checked on the seventh day after the dissemination and the incidence of disease was calculated by Equation 3. The control value was calculated by Equation 1 based on the incidence of disease. In order to calculate the control value, the incidence of disease was also determined in the case in which the plants had not been treated with the agent. […]

[3] = test system: Pythium irregulare, pathogen of cucumber damping-off; test: Cucumber damping-off seed treatment test with metalaxyl (Test Example 4); conditions: seventh day
Description: as §1, §2, §3, §4, §5, §6, §7
as §8, with “metalaxyl” for “mefenoxam”

[4] = test system: Rhizoctonia solani, pathogen of brown patch of turfgrass; test: Turfgrass brown patch foliage application test (Test Example 3); conditions: 14 days
Description: as §1, §2, §3, §4, §5, §6, §7
A plastic pot was filled with sandy soil. Turfgrass (bentgrass penncross) was disseminated and allowed to grow in a green house for 3 weeks. A wettable powder of compound (1b) and a wettable powder of tolclofos-methyl (Grancer Wettable Powder manufactured by Nihon Green & Garden Corporation) were respectively diluted with water and then tank-mixed so as to prepare tank-mixed liquids containing compound (1b) and tolclofos-methyl in predetermined concentration. […] The diseased area ratio of the pot plants on which the agents had been sprayed was determined as the incidence of disease at the time of checking and the control value was calculated by Equation 1 based on the incidence of disease thus determined. In order to calculate the control value, the incidence of disease was also determined in the case in which the plants had not been treated with the agent. […]

[5] = test system: Sclerotinia homeocarpa, pathogen of dollar spot of turfgrass; test: Turfgrass dollar spot foliage application test (Test Example 2); conditions: 14 days
Description: as §1, §2, §3, §4, §5, §6, §7
A plastic pot was filled with sandy soil. Turfgrass (bentgrass penncross) was disseminated and allowed to grow in a green house for 3 weeks. A wettable powder of compound (1b) and a wettable powder of tolclofos-methyl (Grancer Wettable Powder manufactured by Nihon Green & Garden Corporation) were respectively diluted with water and then tank-mixed so as to prepare tank-mixed liquids containing compound (1b) and tolclofos-methyl in predetermined concentration. The tank-mixed liquids were subjected to foliage application such that they could be sufficiently adhered to the leaves of the aforementioned turfgrass. Thereafter, the plants were air-dried. After the plants were air-dried, Sclerotinia homeocarpa, pathogen of dollar spot of turfgrass, which had been cultured on a bran medium was sprayed on the plants to be treated from above. Then, the plants were placed in a greenhouse at 19° C. to 23° C. under high humidity for 14 days, and thereafter control effect was checked. The diseased area ratio of the pot plants on which the agents had been sprayed was determined as the incidence of disease at the time of checking and the control value calculated by Equation 1 based on the incidence of disease thus determined. In order to calculate the control value, the incidence of disease was also determined in the case in which the plants had not been treated with the agent.
As a comparison, the respective wettable powders described above were diluted with water in predetermined concentration so as to prepare a compound (1b) liquid and a tolclofos-methyl liquid respectively and they were subjected to similar tests.

[6] = compound (1b) 0.005 g/100 kg-seed alone
[7] = tolclofos-methyl 37.5 g/ha alone

In the case of `CNC(=O)C(OC)c1ccccc1COc1cc(C)ccc1C` (racemic) [(1b)], the Actual control value ([1]; compound (1b) 1 g/100 kg-seed alone) is reported as 30%, the Actual control value [2, 6] is reported as 25% and the Actual control value [3, 6] is reported as 25%. For the same molecule, the Actual control value ([4]; compound (1b) 9.4 g/ha alone) was 30%, the Actual control value ([4]; compound (1b) 37.5 g/ha alone) was 45% and the “Actual control value (%)” value ([5]; compound (1b) 150 g/ha alone) was 67.2%.

For `COCC(=O)N(c1c(C)cccc1C)[C@H](C)C(=O)OC` [Mefenoxam, mefenoxam], the Actual control value ([2]; mefenoxam 0.00125 g/100 kg-seed alone) was 25% and the Actual control value ([2]; mefenoxam 0.005 g/100 kg-seed alone) was 50%.

`COCC(=O)N(c1c(C)cccc1C)C(C)C(=O)OC` (stereo not drawn) [Metalaxyl, metalaxyl] was tested, and the Actual control value ([3]; metalaxyl 0.00125 g/100 kg-seed alone) was 25% and the Actual control value ([3]; metalaxyl 0.0025 g/100 kg-seed alone) was 12.5%.

For `COP(=S)(OC)Oc1c(Cl)cc(C)cc1Cl` [Tolclofos-methyl, tolclofos-methyl], the Actual control value ([1]; tolclofos-methyl 10 g/100 kg-seed alone) was 57%, the Actual control value [4, 7] was 30% and the “Actual control value (%)” value [5, 7] was 12.4%. For the same molecule, the “Actual control value (%)” value ([5]; tolclofos-methyl 150 g/ha alone) was 43.7% and the “Actual control value (%)” value ([5]; tolclofos-methyl 600 g/ha alone) was 59.3%.
